Experimental data reported in patent US20250002487A1, “HETEROCYCLIC COMPOUNDS AND USES THEREOF” (Ventus Therapeutics U.S., Inc., priority 2021, published 2025).

Target: human-cGAS (h-cGAS) (Homo sapiens, UniProt Q8N884)
Assay: hcGAS Kinase-Glo Assay
Format: biochemical
Conditions: 40 nM h-cGAS, 100 μM ATP, 100 μM GTP, 25 nM dsDNA, 3 h incubation, read-out: hcGAS potency IC50
Summary of the method: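 IC50 values come from a luminescence-based Kinase-Glo measurement on human cGAS. Conditions follow the Lama et al. 2019 method with minor modifications.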

Chain of human-cGAS (h-cGAS) (Q8N884 whole entry): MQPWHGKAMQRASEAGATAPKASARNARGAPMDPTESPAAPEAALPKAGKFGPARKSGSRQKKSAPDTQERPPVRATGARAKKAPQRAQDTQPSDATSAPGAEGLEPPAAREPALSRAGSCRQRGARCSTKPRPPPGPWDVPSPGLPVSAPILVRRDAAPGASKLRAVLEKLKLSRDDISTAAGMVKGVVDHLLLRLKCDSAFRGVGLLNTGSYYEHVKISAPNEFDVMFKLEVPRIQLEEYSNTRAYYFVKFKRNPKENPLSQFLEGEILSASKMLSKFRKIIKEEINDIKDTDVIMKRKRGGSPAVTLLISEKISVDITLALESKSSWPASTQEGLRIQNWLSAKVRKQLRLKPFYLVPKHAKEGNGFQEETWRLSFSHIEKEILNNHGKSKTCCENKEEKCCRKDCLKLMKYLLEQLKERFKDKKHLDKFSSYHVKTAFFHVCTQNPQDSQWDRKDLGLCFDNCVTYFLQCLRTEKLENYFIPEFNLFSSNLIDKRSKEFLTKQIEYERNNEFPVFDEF

CSc1nnc(NC(=O)c2onc3c2ccc2ncccc23)s1 [Compound 271, N-(5-(methylthio)-1,3,4-thiadiazol-2-yl)isoxazolo[3,4-f]quinoline-3-carboxamide]
IC50: 500 to 1000 nM

CSc1nnc(NC(=O)c2cc(-c3ccc(=O)[nH]c3)cc(=O)o2)s1 [Compound 272, N-(5-(methylthio)-1,3,4-thiadiazol-2-yl)-2-oxo-4-(6-oxo-1,6-dihydropyridin-3-yl)-2H-pyran-6-carboxamide]
IC50: 500 to 1000 nM

CSc1nnc(NC(=O)c2onc3c2ccc2cnccc23)s1 [Compound 273, N-(5-(methylthio)-1,3,4-thiadiazol-2-yl)isoxazolo[3,4-f]isoquinoline-3-carboxamide]
IC50: ≥ 1000 nM

CSc1nnc(NC(=O)c2cc(-c3cccc4c3ncn4C)cc(=O)o2)s1 [Compound 274, 4-(1-methyl-1H-benzo[d]imidazol-4-yl)-N-(5-(methylthio)-1,3,4-thiadiazol-2-yl)-2-oxo-2H-pyran-6-carboxamide]
IC50: 100 to 500 nM

CSc1nnc(NC(=O)c2cc(-c3cccc4c3OCCN4)cc(=O)o2)s1 [Compound 275, 4-(3,4-dihydro-2H-benzo[b][1,4]oxazin-8-yl)-N-(5-(methylthio)-1,3,4-thiadiazol-2-yl)-2-oxo-2H-pyran-6-carboxamide]
IC50: 100 to 500 nM

CSc1nnc(NC(=O)c2cc(-c3cccc(=O)[nH]3)cc(=O)o2)s1 [Compound 276, N-(5-(methylthio)-1,3,4-thiadiazol-2-yl)-2-oxo-4-(6-oxo-1,6-dihydropyridin-2-yl)-2H-pyran-6-carboxamide]
IC50: 100 to 500 nM

CSc1nnc(NC(=O)c2cc(-c3cccc4ccncc34)cc(=O)o2)s1 [Compound 277, 4-(isoquinolin-8-yl)-N-(5-(methylthio)-1,3,4-thiadiazol-2-yl)-2-oxo-2H-pyran-6-carboxamide]
IC50: 500 to 1000 nM

COC(=O)c1ccc2c(C(=O)Nc3nnc(SC)s3)onc2c1 [Compound 278, methyl 3-((5-(methylthio)-1,3,4-thiadiazol-2-yl)carbamoyl)benzo[c]isoxazole-6-carboxylate]
IC50: 500 to 1000 nM

CSc1nnc(NC(=O)c2onc3c2ccc2ccncc23)s1 [Compound 279, N-(5-(methylthio)-1,3,4-thiadiazol-2-yl)isoxazolo[4,3-h]isoquinoline-3-carboxamide]
IC50: 500 to 1000 nM

CNc1nnc(NC(=O)c2onc3c2ccc2cccnc23)s1 [Compound 280, N-(5-(methylamino)-1,3,4-thiadiazol-2-yl)isoxazolo[4,3-h]quinoline-3-carboxamide]
IC50: ≥ 1000 nM
